From the Kinase Knowledgebase extract (Sharma et al. 2016)

Biological target: PIK3CA (human) (UniProt P42336)
Assay: Assessment of PIK3CA Kinase Activity

Sequence of PIK3CA (human) (P42336 whole entry, looked up): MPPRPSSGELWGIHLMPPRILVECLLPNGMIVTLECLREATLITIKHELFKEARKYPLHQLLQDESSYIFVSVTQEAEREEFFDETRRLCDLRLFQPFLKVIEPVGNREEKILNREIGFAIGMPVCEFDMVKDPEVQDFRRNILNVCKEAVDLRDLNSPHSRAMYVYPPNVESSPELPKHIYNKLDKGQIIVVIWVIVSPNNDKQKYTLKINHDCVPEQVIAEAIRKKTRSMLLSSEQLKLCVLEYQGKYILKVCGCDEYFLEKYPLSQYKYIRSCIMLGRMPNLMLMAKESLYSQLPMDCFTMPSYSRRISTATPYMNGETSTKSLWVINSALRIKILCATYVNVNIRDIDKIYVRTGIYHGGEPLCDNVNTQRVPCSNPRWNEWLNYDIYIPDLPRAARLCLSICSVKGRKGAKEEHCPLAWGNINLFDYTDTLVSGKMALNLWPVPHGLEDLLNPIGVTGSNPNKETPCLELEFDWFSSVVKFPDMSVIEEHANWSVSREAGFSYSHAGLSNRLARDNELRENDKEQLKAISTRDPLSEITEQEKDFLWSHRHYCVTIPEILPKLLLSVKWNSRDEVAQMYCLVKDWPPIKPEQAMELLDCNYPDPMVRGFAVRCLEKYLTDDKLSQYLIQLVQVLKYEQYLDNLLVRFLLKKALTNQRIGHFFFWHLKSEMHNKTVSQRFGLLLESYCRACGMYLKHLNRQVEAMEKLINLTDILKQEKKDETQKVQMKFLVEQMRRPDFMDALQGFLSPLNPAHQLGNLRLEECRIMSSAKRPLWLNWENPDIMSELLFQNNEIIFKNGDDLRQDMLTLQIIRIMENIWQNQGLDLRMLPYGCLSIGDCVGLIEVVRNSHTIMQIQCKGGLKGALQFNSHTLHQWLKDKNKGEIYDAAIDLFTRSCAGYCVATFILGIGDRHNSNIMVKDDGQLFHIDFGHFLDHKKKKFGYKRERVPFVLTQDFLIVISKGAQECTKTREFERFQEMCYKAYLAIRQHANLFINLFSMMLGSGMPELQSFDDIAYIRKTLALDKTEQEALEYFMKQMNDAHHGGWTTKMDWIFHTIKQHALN

Cn1c(CNCc2cc3nc(-c4ccc(N)cc4)nc(N4CCOCC4)c3s2)nc2cc(C=CC(=O)NO)ccc21
IC50: 100 to 1000 nM

CN(Cc1cc2nc(-c3ccc(O)nc3)nc(N3CCOCC3)c2s1)c1ncc(C(=O)NO)cn1
IC50: 100 to 1000 nM

CN(Cc1cc2nc(-c3ccc4[nH]c(C(F)(F)F)nc4c3)nc(N3CCOCC3)c2s1)c1ncc(C(=O)NO)cn1
IC50: < 100 nM

CN(Cc1cc2nc(-c3cccc(C(=O)O)c3)nc(N3CCOCC3)c2s1)c1ncc(C(=O)NO)cn1
IC50: 100 to 1000 nM

CC(O)c1cccc(-c2nc(N3CCOCC3)c3sc(CN(C)c4ncc(C(=O)NO)cn4)cc3n2)c1 (centres undefined)
IC50: < 100 nM

CN(Cc1cc2nc(-c3ccc(N)cc3F)nc(N3CCOCC3)c2s1)c1ncc(C(=O)NO)cn1
IC50: 100 to 1000 nM

Nc1ccc(-c2nc(N3CCOCC3)c3sc(S(=O)(=O)NCC4CCN(c5ncc(C(=O)NO)cn5)CC4)cc3n2)cc1
IC50: 100 to 1000 nM

COc1ccc(-c2nc(N3CCOCC3)c3sc(NS(=O)(=O)c4cccc(/C=C/C(=O)NO)c4)cc3n2)cn1
IC50: < 100 nM

CN(Cc1cc2nc(-c3ccc(Cl)cc3)nc(N3CCOCC3)c2s1)c1ncc(C(=O)NO)cn1
IC50: > 10000 nM

COc1ncc(-c2nc(N3CCOCC3)c3sc(C(C)(C)Nc4ncc(C(=O)NO)cn4)cc3n2)cn1
IC50: < 100 nM

CC(C)c1ccc(-c2nc(N3CCOCC3)c3sc(CN(C)c4ncc(C(=O)NO)cn4)cc3n2)cc1
IC50: > 10000 nM

CN(Cc1cc2nc(-c3ccc(OCCN)nc3)nc(N3CCOCC3)c2s1)c1ncc(C(=O)NO)cn1
IC50: > 10000 nM

C[C@@H](O)c1cccc(-c2nc(N3CCOCC3)c3sc(CN(C)c4ncc(C(=O)NO)cn4)cc3n2)c1
IC50: 100 to 1000 nM

CN(Cc1cc2nc(-c3cccc(C(C)(C)O)c3)nc(N3CCOCC3)c2s1)c1ncc(C(=O)NO)cn1
IC50: > 10000 nM

CNc1ccc(-c2nc(N3CCOCC3)c3sc(N(C)c4ncc(C(=O)NO)cn4)cc3n2)cn1
IC50: < 100 nM

CN(Cc1cc2nc(-c3cccc(S(=O)(=O)CCO)c3)nc(N3CCOCC3)c2s1)c1ncc(C(=O)NO)cn1
IC50: > 10000 nM

COc1ccc(-c2nc(N3CCOCC3)c3sc(NS(=O)(=O)c4ccc(C=CC(=O)NO)cc4)cc3n2)cn1
IC50: 100 to 1000 nM

CC(O)c1ccc(F)c(-c2nc(N3CCOCC3)c3sc(CN(C)c4ncc(C(=O)NO)cn4)cc3n2)c1 (centres undefined)
IC50: 100 to 1000 nM

CN1CCN(c2nc(-c3cccc4[nH]ncc34)nc3cc(CN(C)c4ncc(C(=O)NO)cn4)sc23)CC1
IC50: > 10000 nM

COc1ccc(Nc2nc(-c3cccc4[nH]ncc34)nc3cc(CN(C)c4ncc(C(=O)NO)cn4)sc23)cc1
IC50: > 10000 nM

CS(=O)(=O)N1CCN(Cc2cc3nc(-c4cccc5[nH]ncc45)nc(NCCCCC(=O)NO)c3s2)CC1
IC50: > 10000 nM

CC(=NO)c1cccc(-c2nc(N3CCOCC3)c3sc(CN(C)c4ncc(C(=O)NO)cn4)cc3n2)c1
IC50: 100 to 1000 nM

COc1ccc(-c2nc(N3CCOCC3)c3sc(C(C)N(C)c4ncc(C(=O)NO)cn4)cc3n2)cn1 (centres undefined)
IC50: < 100 nM

CNc1ccc(-c2nc(N3CCOCC3)c3sc(C(C)(C)N(C)c4ncc(C(=O)NO)cn4)cc3n2)cn1
IC50: 100 to 1000 nM

CN(Cc1cc2nc(-c3cccc(NS(C)(=O)=O)c3)nc(N3CCOCC3)c2s1)c1ncc(C(=O)NO)cn1
IC50: > 10000 nM

Cc1ncc(-c2nc(N3CCOCC3)c3sc(CN(CCO)c4ncc(C(=O)NO)cn4)cc3n2)s1
IC50: 100 to 1000 nM

CN(Cc1cc2nc(-c3ccc(N)c(Cl)c3)nc(N3CCOCC3)c2s1)c1ncc(C(=O)NO)cn1
IC50: 100 to 1000 nM

COc1ncc(-c2nc(N3CCOCC3)c3sc(NS(=O)(=O)c4ccc(C=CC(=O)NO)cc4)cc3n2)cn1
IC50: < 100 nM

CN(Cc1cc2nc(-c3cccc4c3CC(=O)N4)nc(N3CCOCC3)c2s1)c1ncc(C(=O)NO)cn1
IC50: > 10000 nM

CS(=O)(=O)N1CCN(Cc2cc3nc(-c4cccc5[nH]ncc45)nc(NCCCCCCC(=O)NO)c3s2)CC1
IC50: > 10000 nM

CS(=O)(=O)N1CCN(Cc2cc3nc(-c4ccc(OCCCCCCC(=O)NO)cc4)nc(N4CCOCC4)c3s2)CC1
IC50: 100 to 1000 nM

CC(=O)c1cccc(-c2nc(N3CCOCC3)c3sc(CN(C)c4ncc(C(=O)NO)cn4)cc3n2)c1
IC50: 100 to 1000 nM

CN(Cc1cc2nc(-c3ccc4c(c3)NC(=O)CO4)nc(N3CCOCC3)c2s1)c1ncc(C(=O)NO)cn1
IC50: > 10000 nM

CN(Cc1cc2nc(-c3cccc(S(N)(=O)=O)c3)nc(N3CCOCC3)c2s1)c1ncc(C(=O)NO)cn1
IC50: 100 to 1000 nM

CC(=O)NCc1ccc(-c2nc(N3CCOCC3)c3sc(CN(C)c4ncc(C(=O)NO)cn4)cc3n2)cc1
IC50: > 10000 nM

COc1ncc(-c2nc(N3CCOCC3)c3sc(C(C)(C)N(C)c4ncc(C(=O)NO)cn4)cc3n2)cn1
IC50: 100 to 1000 nM

Cc1ncc(-c2nc(N3CCOCC3)c3sc(CN(C)c4ncc(C(=O)NO)cn4)cc3n2)s1
IC50: 100 to 1000 nM

Nc1ccc(-c2nc(N3CCOCC3)c3sc(CN(CCO)c4ncc(C(=O)NO)cn4)cc3n2)cc1F
IC50: < 100 nM

CNc1ccc(-c2nc(N3CCOCC3)c3sc(C(C)N(C)c4ncc(C(=O)NO)cn4)cc3n2)cn1 (centres undefined)
IC50: < 100 nM

CNc1ccc(-c2nc(N3CCOCC3)c3sc(CN(C)Cc4nc5cc(C=CC(=O)NO)ccc5n4C)cc3n2)cn1
IC50: < 100 nM

CCN(CC)c1ccc(-c2nc(N3CCOCC3)c3sc(CN(C)c4ncc(C(=O)NO)cn4)cc3n2)cc1
IC50: > 10000 nM

CN(Cc1cc2nc(-c3ccc(N)cc3Cl)nc(N3CCOCC3)c2s1)c1ncc(C(=O)NO)cn1
IC50: < 100 nM

CS(=O)(=O)N1CCN(Cc2cc3nc(-c4cccc5nn(CCCCCCC(=O)NO)cc45)nc(N4CCOCC4)c3s2)CC1
IC50: > 10000 nM

O=C(NO)c1ccc2c(ccn2Cc2cc3nc(-c4cccc5[nH]ncc45)nc(N4CCOCC4)c3s2)c1
IC50: > 10000 nM

C[C@H](O)c1cccc(-c2nc(N3CCOCC3)c3sc(CN(C)c4ncc(C(=O)NO)cn4)cc3n2)c1
IC50: 100 to 1000 nM

Nc1ccc(-c2nc(N3CCOCC3)c3sc(C(=O)NCC4CCN(c5ncc(C(=O)NO)cn5)CC4)cc3n2)cc1
IC50: 100 to 1000 nM

CN(Cc1cc2nc(-c3cnc(OCc4ccccc4)nc3)nc(N3CCOCC3)c2s1)c1ncc(C(=O)NO)cn1
IC50: 100 to 1000 nM

O=C(C=Cc1cccc(S(=O)(=O)Nc2cc3nc(-c4cccc5[nH]ncc45)nc(N4CCOCC4)c3s2)c1)NO
IC50: < 100 nM

CS(=O)(=O)N1CCN(Cc2cc3nc(-c4ccc(OCCCCC(=O)NO)cc4)nc(N4CCOCC4)c3s2)CC1
IC50: 100 to 1000 nM

Nc1ncc(-c2nc(N3CCOCC3)c3sc(NS(=O)(=O)c4cccc(/C=C/C(=O)NO)c4)cc3n2)cn1
IC50: < 100 nM

CNc1ccc(-c2nc(N3CCOCC3)c3sc(C(=O)NCC4CCN(c5ncc(C(=O)NO)cn5)CC4)cc3n2)cn1
IC50: < 100 nM

CN(Cc1cc2nc(-c3ccccc3)nc(N3CCOCC3)c2s1)c1ncc(C(=O)NO)cn1
IC50: > 10000 nM

CN(Cc1cc2nc(-c3ccc(F)cc3)nc(N3CCOCC3)c2s1)c1ncc(C(=O)NO)cn1
IC50: > 10000 nM

CN(Cc1cc2nc(-c3ccc(N)c([N+](=O)[O-])c3)nc(N3CCOCC3)c2s1)c1ncc(C(=O)NO)cn1
IC50: < 100 nM

CS(=O)(=O)N1CCN(Cc2cc3nc(-c4cccc5nn(CCCCCC(=O)NO)cc45)nc(N4CCOCC4)c3s2)CC1
IC50: > 10000 nM

CN(Cc1cc2nc(-c3cccc4[nH]ncc34)nc(N3CCN(CCO)CC3)c2s1)c1ncc(C(=O)NO)cn1
IC50: > 10000 nM

Nc1ncc(-c2nc(N3CCOCC3)c3sc(NCCCC(=O)NO)cc3n2)cn1
IC50: < 100 nM

CC(C)C(=O)Nc1ccc(-c2nc(N3CCOCC3)c3sc(CN(C)c4ncc(C(=O)NO)cn4)cc3n2)cc1
IC50: 100 to 1000 nM

Cn1cc(-c2nc(N3CCOCC3)c3sc(CN(CCO)c4ncc(C(=O)NO)cn4)cc3n2)cn1
IC50: 100 to 1000 nM

CN(Cc1cc2nc(-c3cccc4[nH]c(=O)sc34)nc(N3CCOCC3)c2s1)c1ncc(C(=O)NO)cn1
IC50: < 100 nM

CN(C)c1ccc(-c2nc(N3CCOCC3)c3sc(CN(C)c4ncc(C(=O)NO)cn4)cc3n2)cc1
IC50: > 10000 nM

CN(Cc1cc2nc(-c3cnn(C)c3)nc(N3CCOCC3)c2s1)c1ncc(C(=O)NO)cn1
IC50: 100 to 1000 nM

CC(=O)N1CCN(c2nc(-c3cccc4[nH]ncc34)nc3cc(CN(C)c4ncc(C(=O)NO)cn4)sc23)CC1
IC50: > 10000 nM

CN(c1ncc(C(=O)NO)cn1)c1cc2nc(-c3ccc(N)cc3)nc(N3CCOCC3)c2s1
IC50: < 100 nM

CN(Cc1cc2nc(-c3cccc(CCO)c3)nc(N3CCOCC3)c2s1)c1ncc(C(=O)NO)cn1
IC50: 100 to 1000 nM

CS(=O)(=O)N1CCN(Cc2cc3nc(-c4cccc5[nH]ncc45)nc(NCCCCCC(=O)NO)c3s2)CC1
IC50: > 10000 nM

CNc1ccc(-c2nc(N3CCOCC3)c3sc(CNCc4nc5cc(C=CC(=O)NO)ccc5n4C)cc3n2)cn1
IC50: < 100 nM

COc1ccc(-c2nc(N3CCOCC3)c3sc(C(C)(C)Nc4ncc(C(=O)NO)cn4)cc3n2)cn1
IC50: < 100 nM

CCCc1nc2cc(C=CC(=O)NO)ccc2n1CCN(C)Cc1cc2nc(-c3ccc(NC)nc3)nc(N3CCOCC3)c2s1
IC50: 100 to 1000 nM

CNc1ncc(-c2nc(N3CCOCC3)c3sc(NCCCCC(=O)NO)cc3n2)cn1
IC50: < 100 nM

Nc1ccc(-c2nc(N3CCOCC3)c3sc(CN(CCO)c4ncc(C(=O)NO)cn4)cc3n2)cn1
IC50: < 100 nM

O=C(CCCCNc1cc2nc(-c3cc(O)ccc3F)nc(N3CCOCC3)c2s1)NO
IC50: < 100 nM

CN(Cc1cc2nc(-c3cc(F)c(N)c(F)c3)nc(N3CCOCC3)c2s1)c1ncc(C(=O)NO)cn1
IC50: 100 to 1000 nM

CN(Cc1cc2nc(-c3cccc4[nH]c(=S)[nH]c34)nc(N3CCOCC3)c2s1)c1ncc(C(=O)NO)cn1
IC50: < 100 nM

Nc1ccc(-c2nc(N3CCOCC3)c3sc(S(=O)(=O)Nc4ncc(C(=O)NO)cn4)cc3n2)cc1
IC50: < 100 nM

COc1ncc(-c2nc(N3CCOCC3)c3sc(NS(=O)(=O)c4cccc(C=CC(=O)NO)c4)cc3n2)cn1
IC50: < 100 nM

Nc1ccc(-c2nc(N3CCOCC3)c3sc(CN(CCO)c4ncc(C(=O)NO)cn4)cc3n2)cc1
IC50: < 100 nM

CS(=O)(=O)N1CCN(Cc2cc3nc(-c4cccc5c4cnn5CCCCC(=O)NO)nc(N4CCOCC4)c3s2)CC1
IC50: > 10000 nM

CNc1ccc(-c2nc(N3CCOCC3)c3sc(CN(C)c4ncc(C(=O)NO)cn4)cc3n2)cc1
IC50: > 10000 nM

Nc1ncc(-c2nc(N3CCOCC3)c3sc(NCCCCCCC(=O)NO)cc3n2)cn1
IC50: < 100 nM

CN(Cc1cc2nc(-c3ccc(N)c(CO)c3)nc(N3CCOCC3)c2s1)c1ncc(C(=O)NO)cn1
IC50: < 100 nM

CN(Cc1cc2nc(-c3ccc(C#N)cc3)nc(N3CCOCC3)c2s1)c1ncc(C(=O)NO)cn1
IC50: > 10000 nM

CN(Cc1cc2nc(-c3ccc(N)c(O)c3)nc(N3CCOCC3)c2s1)c1ncc(C(=O)NO)cn1
IC50: < 100 nM

CS(=O)(=O)N1CCN(Cc2cc3nc(-c4cccc5[nH]ncc45)nc(N4CCN(CCCCCCC(=O)NO)CC4)c3s2)CC1
IC50: > 10000 nM
